Test results: BindingDB's records for doi:10.1021/jm201449n (Cephalon, 2012)

Target: Mitogen-activated protein kinase kinase kinase 7 (TAK1/MAP3K7) (Homo sapiens) (UniProt O43318)
Assay: Inhibition of human TAK1 using ATP as substrate

Sequence of Mitogen-activated protein kinase kinase kinase 7 (TAK1/MAP3K7) (Homo sapiens) (O43318 whole entry, looked up): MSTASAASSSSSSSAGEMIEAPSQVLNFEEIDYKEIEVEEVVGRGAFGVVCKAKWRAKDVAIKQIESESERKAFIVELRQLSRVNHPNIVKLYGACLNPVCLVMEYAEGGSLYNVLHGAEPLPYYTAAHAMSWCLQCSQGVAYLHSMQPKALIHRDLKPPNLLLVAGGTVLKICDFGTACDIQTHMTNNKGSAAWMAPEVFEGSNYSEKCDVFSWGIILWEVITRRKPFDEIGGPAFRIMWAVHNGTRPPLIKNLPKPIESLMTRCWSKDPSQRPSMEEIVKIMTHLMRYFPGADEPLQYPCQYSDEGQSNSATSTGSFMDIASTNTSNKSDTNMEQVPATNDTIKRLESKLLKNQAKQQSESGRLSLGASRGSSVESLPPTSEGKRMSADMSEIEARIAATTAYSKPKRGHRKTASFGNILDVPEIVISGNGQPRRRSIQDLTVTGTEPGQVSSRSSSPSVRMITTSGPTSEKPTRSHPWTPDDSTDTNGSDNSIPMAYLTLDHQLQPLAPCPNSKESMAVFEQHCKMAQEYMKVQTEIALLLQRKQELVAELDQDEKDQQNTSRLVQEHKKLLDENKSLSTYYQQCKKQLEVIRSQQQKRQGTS

IC50: 14 nM
SMILES: CC(C)Cn1c2ccc(Nc3ncccn3)cc2c2c3c(c4c(c21)CCc1nn(C)cc1-4)C(=O)NC3 [CEP-11981]
